# In patent US8008023B2, “Natural ligand of G protein coupled receptor RCC356 and uses thereof” (Chemcom S.A., priority 2005, dated 2011):
# What was measured:
# [1] = target: T1, RCC356 (Homo sapiens, UniProt Q8TCB6); experiment: Screening of 80 odorants on RCC356 overexpressed in Hek293 cells, CRE-luciferase reporter (Dual-Glo); format: cell-based; conditions: Hek293 overexpressing RCC356; for RCC356 activation in odorant screening (luciferase activity as percent of forskolin response): odorants plated as 200 μM solutions in HBSS, two independent screenings; for hit found in both independent screenings: two independent screenings of 80 odorants
# T1 construct: expressed in transfected cells; host or cells: Hek293 cells, transient transfection with lipofectamine 2000
# T1 sequence (Q8TCB6 1-318): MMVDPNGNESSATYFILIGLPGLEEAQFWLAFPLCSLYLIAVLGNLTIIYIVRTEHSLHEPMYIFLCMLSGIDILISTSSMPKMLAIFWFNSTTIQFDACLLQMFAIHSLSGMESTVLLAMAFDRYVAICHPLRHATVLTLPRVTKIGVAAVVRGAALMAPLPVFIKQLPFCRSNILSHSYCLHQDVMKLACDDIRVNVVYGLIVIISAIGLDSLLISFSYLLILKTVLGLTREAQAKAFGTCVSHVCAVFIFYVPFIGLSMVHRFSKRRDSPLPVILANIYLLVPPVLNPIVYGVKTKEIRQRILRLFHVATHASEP
# Experimental: (§1) Hek293 cells were grown in MEM supplemented with decomplemented FBS at 37° C. under 5% CO2 and 90% humidity. Two days before screening, cells were plated onto 96-well plates (PDL coated plates, Becton-Dickinson). The day after, cells were transfected with a plasmid encoding RCC356 polypeptide along with 2 plasmides encoding firefly luciferase and renilla luciferase respectively. Firefly transcription was driven by a minimum promoter including the CREB-response element (CRE), whereas renilla luciferase was driven by CMV promoter, a strong constitutive promoter. Transfection was performed using lipofectamine 2000 reagent (Invitrogen). Transfected cells were let under standard culture conditions for a further 24 hours, and then process for functional assay.
# (§2) Odorants were dissolved as 1M solutions in DMSO. They were then plated onto 96-well plates as 200 μM solutions in HBSS (Cambrex). DMSO represented thereby less than 1% (v/v) of the odorant solutions. Positive controls such as forskolin were included in odorant plates. Forskolin activates production of cAMP that in turn, through binding to CREB transcription factor triggers production of firefly luciferase, the reporter gene of the system. Detected luciferase activity in each well could be thereby expressed as a percent of forskolin response, allowing standardization thereon.
# (§3) Functional assay was performed using Dual-Glo luciferase assay Kit according to manufacturer instructions (Promega).
# [2] = target: T1, RCC356; experiment: Concentration-response analysis of odorants on Hek293 cells overexpressing RCC356 polypeptide, CRE-luciferase reporter (Dual-Glo); format: cell-based; conditions: for EC50: 0.1 μM to 1 mM, CRE-luciferase, read-out: Ec50 of RCC356 activation
# Experimental: as §1, with “To further validate hits found during screenings of 80 odorants on RCC356 overexpressing-Hek293 cells, concentration-response analyses have been performed. Hek293” for “Hek293”
# as §2, with “First, tested odorants (isovaleric, valeric, propionic, hexanoic, heptanoic, caprilic and pelargonic acids) were” for “Odorants were”, “plates at different concentrations ranging from 0.1” for “plates as 200”, “μM to 1 mM” for “μM solutions”
# as §3
RCC356 activation in odorant screening (luciferase activity as percent of forskolin response) [1],EC50 [2],efficiency of ligand on RCC356 activation ([2]; percent of forskolin response (FIG. 3A)),hit found in both independent screenings [1],Structure (SMILES)
seemed to lead to RCC356 activation,–,–,–,CCC(=O)O [propionic acid]
seemed to lead to RCC356 activation,25 µM,most efficient ligand,found in both screening,CC(C)CC(=O)O [isovaleric acid]
seemed to lead to RCC356 activation,97 µM,–,found in both screening,CCCCC(=O)O [valeric acid]
–,485 µM,–,–,C=CCCCC(=O)O [5-hexenoic acid]
seemed to lead to RCC356 activation,260 µM,–,–,CCCCCCC(=O)O [oenanthylic acid]
–,104 µM,–,–,O=C(O)C1CCCCC1 [hexahydrobenzoic acid]

Structure (SMILES),RCC356 activation in odorant screening (luciferase activity as percent of forskolin response) [1],EC50 [2],efficiency of ligand on RCC356 activation ([2]; percent of forskolin response (FIG. 3A)),hit found in both independent screenings [1]
CCCCCCCCC(=O)O [pelargonic acid],seemed to lead to RCC356 activation,643 µM,–,–
CCCCCC(=O)O [caproic acid],seemed to lead to RCC356 activation,91 µM,–,–
"CCCCCCCC(=O)O [caprilic acid, caprylic acid]",seemed to lead to RCC356 activation,329 µM,–,–
